Experimental data as given in patent US20150265682A1, “THERAPEUTIC METHODS AND COMPOSITIONS FOR TREATING DIABETES” (Orient Europharma Co., Ltd., priority 2014, published 2015).

Assays:
IL-6-treated C2C12 cells = test: Glycogen content assay in IL-6-treated (insulin resistant) C2C12 cells; assay type: cell-based; conditions: 30 minutes; for fold increase of glycogen content: IL-6-treated C2C12
Protocol: The C2C12 skeletal muscle cells were cultured in Dulbecco's modified Eagle's medium (DMEM; Gibco/Invitrogen, Carlsbad, Calif.), and the human hepatocellular carcinoma cell line, Hep3B, was cultured in Roswell Park Memorial Institute medium 1640 (RPMI 1640 medium; Gibco/Invitrogen, Carlsbad, Calif.). Cells were cultured at 37° C. in the humidified incubator supplied with 5% CO2. Culture mediums were supplemented with 4.5 mgmL^−1 glucose, penicillin 100 IUmL^−1, streptomycin 100 μgmL^−1 and 10% fetal bovine serum (Gibco/Invitrogen, Carlsbad, Calif.). Only C2C12 cells were then switched to 2% horse serum for 3 days after reaching the 70% confluence. Myotubes formation was achieved after 4 days of incubation, and the cells were used for subsequent experiments. Culture mediums were replaced by serum free DMEM or RPMI for 24 h before experiments (see e.g., procedure described in Sultan et al., 2006).
C2C12 and Hep3B cells were treated with 1 nM insulin, 100 μM metformin, and the assigned concentration of borapetoside A for 30 minutes. To develop the insulin resistance state of cells, C2C12 cells were incubated with IL-6 at 20 ngmL^−1 for 1 hour. Later, the cells were treated with 1 nM insulin, 100 μM metformin, and the assigned concentration of borapetoside A for 30 minutes. After the assigned treatment, cells were washed twice with phosphate buffered saline (PBS). Glycogen content was measured as previously described, with some modifications (see e.g., Savage et al., 2008). The protein concentrations of the cell lysates were determined by using Pierce BCA Protein Assay Kit (Thermo-Scientific, Rockford, Ill.). The glycogen content of each sample was normalized by total protein.

[1] = tested on: soleus muscle of normal, type 1 DM and type 2 DM mice; test: Glycogen content in soleus muscle in vivo (borapetoside A); design: species or system ICR mice; conditions: borapetoside A 10 mgkg^−1 i.p. 60 minutes, insulin 0.5 IUkg^−1
Protocol: (§1) After three days of acclimatization, the mice had free access to a standard rodent chow (normal mice), a standard rodent chow after single […] streptozotocin (STZ) intraperitoneal injection (T1DM mice), and a fat-rich chow diet and fructose-sweetened water (T2DM mice) for 4 weeks. The induction of Type 1 DM was assessed and confirmed when the mice had plasma glucose levels ≧350 mgdL^−1, accompanied with polyuria, hyperphagia and decreased body weight. The induction Type 2 DM in the mice was assessed by measuring fasting plasma glucose levels and confirmed when plasma glucose level was ≧150 mgdL^−1 after the 4-week induction. The animals were assigned randomly into three groups, with seven animals in each group. In group I, the mice were treated with vehicle, 2% DMSO in normal saline, as the negative control. In group II, the mice were intraperitoneally treated with borapetoside A (0.1-10 mgkg^−1). In group Ill, the positive control, the mice received intraperitoneally metformin (300 mgkg^−1; Sigma Chemical Co., St. Louis, Mo., U.S.A.) or insulin (0.5 IUkg^−1; Insulin Actrapid® HM; Novo Nordisk, Denmark). In the acute study, mice under anesthesia received a single intraperitoneal administration of borapetoside A, negative control, or positive control. In the subacute study, mice received intraperitoneal administrations of borapetoside A, vehicle, or insulin twice a day for seven days.
(§2) The mice were injected with borapetoside A (10 mgkg^−1, interperitoneal) for 60 minutes or insulin (0.5 IUkg^−1, interperitoneal) for 30 minutes. After the treatment, the anesthetic mice were sacrificed by cervical dislocation to collect the soleus muscle and liver. About 40 mg of each sample was dissolved in 1 mol/L KOH at 75° C. for 30 min. The dissolved homogenate was neutralized by glacial acetic acid and then incubated overnight in acetate buffer (0.3 mol/L sodium acetate, pH 4.8) containing amyloglucosidase (Sigma, St. Louis, Mo.). The mixture was then neutralized with 1 mol/L NaOH to stop the reaction. The glycogen contents in the tissue samples were determined as μg of glucose per mg of tissue (wet weight).

[2] = tested on: liver of normal, type 1 DM and type 2 DM mice; test: Glycogen content in liver in vivo (borapetoside A); design: species or system ICR mice; conditions: borapetoside A 10 mgkg^−1 i.p. 60 minutes, insulin 0.5 IUkg^−1
Protocol: as §1, §2

[3] = tested on: normal, T1DM and T2DM mice; test: Insulin tolerance test (ITT): activity of lowering plasma glucose (AL); assay type: in vivo, ICR mice; conditions: 30 min after insulin
Protocol: T1DM mice were induced by a known method. In brief, an intraperitoneal injection of streptozotocin (STZ; Sigma Chemical Co.; St. Louis, Mo.) at 150 mg/kg was performed in mice that were fasted for 48 h. The induction of T1DM was assessed and confirmed when the mice had plasma glucose levels ≧350 mg/dL, accompanied with polyuria, hyperphagia and decreased body weight. The control mice group received an injection of vehicle and then carried out for 4 weeks. T2DM mice were induced by maintaining on a fat-rich chow diet and fructose-sweetened water for 4 weeks from the age of 4-5 weeks according to previous methods. The induction T2DM mice were assessed by measuring fasting plasma glucose levels and confirmed when plasma glucose level was ≧150 mg/dL after a 4-week induction.
Blood samples were collected from the orbital vascular plexus of mice under anesthesia with sodium pentobarbital (80 mg/kg, intraperitoneal, Sigma Chemical Co., St. Louis, Mo., USA). Blood samples were then centrifuged at 13000 rpm for 5 min, and the plasma was kept on ice prior to the assay. The plasma glucose concentration was measured using commercial kits following manufacturer's instructions (BioSystems S. A., Barcelona, Spain).
To perform OGTT, mice were fasted overnight, divided into 2 groups and then administered a vehicle control and 5 mg/kg borapetoside C. This was followed by administration of a glucose solution at 2 g/kg via tube feeding. Blood samples were withdrawn from the orbital vascular plexus at intervals of 30, 60, 120, and 150 min after glucose administration. For the ITT, mice were fasted for 3 h. Human insulin (Insulin Actrapid) HM; Novo Nordisk, Denmark) was injected intraperitoneally after an intraperitoneal administration of 0.1 mg/kg borapetoside C for 30 min. Blood samples were collected from the orbital vascular plexus at the timed intervals mentioned above.
Therefore, the effects of borapetoside C on insulin tolerance were tested in this study. The non-diabetic, T1DM, and T2DM mice were injected with insulin at various doses (i.e., 0.1 IU/kg, 0.5 IU/kg, and 1.0 IU/kg) in conjunction with either borapetoside C (0.1 mg/kg) or a vehicle control (Table 3), and their plasma glucose levels were examined before and 30 min after insulin injection. The activity of lowering plasma glucose levels (AL) was calculated by the formula: (Gi−Gt)/Gi×100%, where the Gi was the initial glucose concentration and G1 was the plasma glucose concentration after 30-min treatment with insulin. Insulin reduced the plasma glucose levels in both normal and diabetic mice, and the glucose levels were further decreased when insulin was co-administered with borapetoside C to the mice.

[4] = Normal mice, insulin 0.1 IU/kg with borapetoside C 0.1 mg/kg or vehicle
[5] = Normal mice, insulin 0.5 IU/kg with borapetoside C 0.1 mg/kg or vehicle
[6] = Normal mice, insulin 1.0 IU/kg with borapetoside C 0.1 mg/kg or vehicle
[7] = T1DM mice, insulin 0.1 IU/kg with borapetoside C 0.1 mg/kg or vehicle
[8] = T1DM mice, insulin 0.5 IU/kg with borapetoside C 0.1 mg/kg or vehicle
[9] = T1DM mice, insulin 1.0 IU/kg with borapetoside C 0.1 mg/kg or vehicle
[10] = T2DM mice, insulin 0.1 IU/kg with borapetoside C 0.1 mg/kg or vehicle
[11] = T2DM mice, insulin 0.5 IU/kg with borapetoside C 0.1 mg/kg or vehicle
[12] = T2DM mice, insulin 1.0 IU/kg with borapetoside C 0.1 mg/kg or vehicle

Row | Compound | fold increase of glycogen content (IL-6-treated C2C12 cells; 10^−6 mol/L) [fold] | fold increase of glycogen content (IL-6-treated C2C12 cells; 10^−7 mol/L) [fold] | fold increase of glycogen content (IL-6-treated C2C12 cells; 10^−8 mol/L) [fold] | glycogen content in soleus muscle ([1]; mice with type 1 DM) | glycogen content in soleus muscle ([1]; mice with type 2 DM) | glycogen content in soleus muscle ([1]; normal mice) | glycogen content in liver ([2]; mice with type 1 DM) | glycogen content in liver ([2]; mice with type 2 DM) | glycogen content in liver ([2]; normal mice) | AL (activity of lowering plasma glucose levels) [3, 4] [%] | AL (activity of lowering plasma glucose levels) [3, 5] [%] | AL (activity of lowering plasma glucose levels) [3, 6] [%] | AL (activity of lowering plasma glucose levels) [3, 7] [%] | AL (activity of lowering plasma glucose levels) [3, 8] [%] | AL (activity of lowering plasma glucose levels) [3, 9] [%] | AL (activity of lowering plasma glucose levels) [3, 10] [%] | AL (activity of lowering plasma glucose levels) [3, 11] [%] | AL (activity of lowering plasma glucose levels) [3, 12] [%] | glycogen content (IL-6-treated C2C12 cells; IL-6-induced insulin resistant model, 1 nM insulin)
1 | C[C@@]12C[C@@H](c3ccoc3)OC(=O)[C@@H]1C[C@@H]1OC(=O)[C@@]3(O)[C@@H](O[C@@H]4O[C@H](CO)[C@@H](O)[C@H](O)[C@H]4O)CC[C@@H]2[C@@]13C [Borapetoside A, borapetoside A] | 1.64±0.05 | 1.38±0.06 | 1.35±0.08 | 155.6±8.6 % of vehicle control | 171.8±12.0 % of vehicle control | 116.5±4.2 % of vehicle control | 196.9±15.6 % of vehicle control | 146.1±12.0 % of vehicle control | 257.8±15.8 % of vehicle control |  |  |  |  |  |  |  |  |  | 
2 | COC(=O)C1=CCC[C@H]2[C@]3(C)C[C@@H](c4ccoc4)OC(=O)[C@@H]3C[C@@H](O[C@@H]3O[C@H](CO)[C@@H](O)[C@H](O)[C@H]3O)[C@@]12C [Borapetoside C, borapetoside C] |  |  |  |  |  |  |  |  |  | 17.2 ± 1.2 | 45.7 ± 3.7 | 64.7 ± 1.8 | 10.5 ± 1.4 | 18.9 ± 2.1 | 32.2 ± 2.1 | 24.0 ± 1.1 | 31.6 ± 1.6 | 42.5 ± 0.8 | 
3 | Insulin: human insulin, Insulin Actrapid HM, a short-acting insulin provided by Novo Nordisk [reference compound] |  |  |  |  | failed to enhance |  |  | failed to enhance |  | 14.6 ± 0.8 | 37.5 ± 1.1 | 56.8 ± 1.9 | 8.7 ± 1.6 | 11.5 ± 0.6 | 24.0 ± 1.3 | 19.5 ± 1.5 | 27.5 ± 2.6 | 32.0 ± 1.1 | not increased
